Reference: US9574239B2, “MicroRNA signatures in human ovarian cancer” (The Ohio State University Research Foundation, priority 2007, dated 2017)

What was measured:
Assay type in all cases: cell-based, human
OVCAR3 cells [1] = experiment: Northern blot of miR-21 in OVCAR3 cells after demethylating treatment; conditions: OVCAR3, before vs after treatment; FIG. 5D
Procedure: Northern blot analysis was performed as previously described. RNA samples (10 μg each) were run on 15% Polyacrylamide, 7M Urea Criterion pre-casted gels (Bio-Rad, Hercules, Calif.) and transferred onto Hybond-N+ membranes (Amersham, Piscataway, N.J.). The hybridization was performed at 370 C in ULTRAhyb-Oligo hybrization buffer (Ambion, Austin, Tex.) for 16 hours. Membranes were washed at 370 C, twice with 2×SSPE and 0.5% SDS. 5S RNA or EtBr gel staining were used to normalize 200 ng of each probe was end labeled with 100 μCi [gamma-32P]-ATP using the polynucleotide kinase (Roche). Blots were stripped in boiling 0.1% SDS for 10 minutes before re-hybridization. OVCAR3 cells were seeded at low density 48 h before treatment with 10 μM 5′aza-2′deoxycytidine (5′-AZA, Sigma). After 24 h of treatment, cells were collected and total RNA was isolated using Trizol reagent (Invitrogen).

OVCAR3 cells [2] = experiment: miR expression by microarray profiling of OVCAR3 cells before and after demethylating treatment; conditions: 10 μM, 24 h
Procedure: Total RNA isolation was performed with Trizol (Invitrogen, Carlsbad, Calif.) according to the manufacturer's instructions. RNA labeling and hybridization on microRNA microarray chips were performed as previously described (28) using 5 μg of total RNA from each sample. Hybridization was carried out on our microRNA microarray (Ohio State Comprehensive Cancer Center, version 2.0), which contains probes for 460 mature microRNAs spotted in quadruplicate (235 homo sapiens, 222 mus musculus, and three Arabidopsis thaliana) with annotated active sites. Often, more than one probe set exists for a given mature microRNA. Additionally, there are quadruplicate probes corresponding to most precursor microRNAs. Hybridization signals were detected with Streptavidin-Alexa647 conjugate and scanned images (Axon 4000B) were quantified using the Genepix 6.0 software (Axon Instruments, Sunnyvale, Calif.).
Microarray images were analyzed by using GENEPIX PRO. Average values of the replicate spots of each miRNA were background subtracted, normalized, and subjected to further analysis. We performed a global median normalization of Ovary microarray data by using BRB ArrayTools developed by Richard Simon & Amy Peng Lam (29). Absent calls were thresholded to 4.5 before subsequent statistical analysis. This level is the average minimum intensity level detected in the experiments. miRNA nomenclature was according to the Genome Browser (genome.ucsc.edu) and the miRNA database at Sanger Center (microrna.sanger.ac.uk/); in case of discrepancies the miRNA database was followed. Differentially expressed miRNAs were identified by using the t test procedure within significance analysis of microarrays (SAM), a method developed at Stanford University Labs based on recent paper of Tusher, Tibshirani and Chu (30).
OVCAR3 cells were seeded at low density 48 h before treatment with 10 μM 5′aza-2′deoxycytidine (5′-AZA, Sigma). After 24 h of treatment, cells were collected and total RNA was isolated using Trizol reagent (Invitrogen). 3 replicates for both untreated cells and AZA-treated cells were used to evaluate the miR expression by Microarray profiling. Differentially expressed microRNAs were identified by using univariate two-classes T-test with random variance model.

OVCAR3 cells [3] = experiment: Real-Time PCR of miR expression levels in OVCAR3 cells after demethylating treatment; conditions: OVCAR3, before vs after treatment; FIG. 5C
Procedure: Relative expression was calculated using the comparative Ct method.

[4] = OVCAR3, before vs after treatment, p<0.001

Nc1ncn([C@H]2C[C@H](O)[C@@H](CO)O2)c(=O)n1 [5-aza-2′-deoxycytidine]
miR-21 expression (Northern Blot, normalized with EtBr gel staining) (OVCAR3 cells [1]): up-modulation
expression of miR-21, miR-203, miR-146b, miR-205, miR-30-5p and miR-30c (OVCAR3 cells [2]; OVCAR3, before vs after treatment): most significant induced upon treatment
human microRNAs differentially expressed (number) (OVCAR3 cells [2]; [4]): 11
human microRNAs down-modulated (number) (OVCAR3 cells [2]; [4]): 2
human microRNAs up-modulated (number) (OVCAR3 cells [2]; [4]): 9
levels of miR-21, miR-203 and miR-205 after demethylating treatment (OVCAR3 cells [2]; OVCAR3 cells): significantly increased
expression levels of the 5 most significantly induced miRs (Real-Time PCR) (OVCAR3 cells [3]): up-modulation
